Source: ChEMBL document CHEMBL1201862, “PubChem BioAssay data set” (2004)
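Assay format: 96-well plates, 48-hour exposure. Abbreviation: GI50, concentration required for 50% inhibition of growth.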 Active and inactive are the calls of the source. Rule as the data show it: active = GI50 up to about 1.1 µM and inactive = higher.

Assays:
Assay in all cases: DTP human tumour cell line panel, 48 h
NCI-H23 = test system: NCI-H23
HCT-15 = test system: HCT-15
SK-MEL-2 = test system: SK-MEL-2
SR = test system: SR
SK-MEL-28 = test system: SK-MEL-28
IGROV-1 = test system: IGROV-1
M14 = test system: M14
SF-539 = test system: SF-539
KM12 = test system: KM12
OVCAR-8 = test system: OVCAR-8
ACHN = test system: ACHN
A549 = test system: A549
U-251 = test system: U-251
MOLT-4 = test system: MOLT-4
SF-295 = test system: SF-295
NCI-H226 = test system: NCI-H226

SMILES	GI50 (NCI-H23)	GI50 (HCT-15) [µM]	GI50 (SK-MEL-2)	GI50 (SR)	GI50 (SK-MEL-28)	GI50 (IGROV-1)	GI50 (M14)	GI50 (SF-539)	GI50 (KM12)	GI50 (OVCAR-8)	GI50 (ACHN)	GI50 (A549)	GI50 (U-251)	GI50 (MOLT-4)	GI50 (SF-295)	GI50 (NCI-H226)
Cn1c(=O)c2[nH]cnc2n(CC(N)=O)c1=O	> 100 µM (inactive)	> 100	> 100 µM (inactive)	> 100 µM (inactive)	> 100 µM (inactive)	> 100 µM (inactive)	> 100 µM (inactive)	> 100 µM (inactive)	> 100 µM (inactive)	> 100 µM (inactive)	> 100 µM (inactive)	> 100 µM (inactive)	> 100 µM (inactive)	> 100 µM (inactive)		
Nn1c(S)nnc1NNC(=O)C(=O)Nc1cc(Cl)c(Cl)cc1Cl	> 100 µM (inactive)	> 100			> 100 µM (inactive)	> 100 µM (inactive)	> 100 µM (inactive)	> 100 µM (inactive)	> 100 µM (inactive)	> 100 µM (inactive)	> 100 µM (inactive)	> 100 µM (inactive)	> 100 µM (inactive)		> 100 µM (inactive)	> 100 µM (inactive)
CCOc1ccc(NC(=O)/C(Cc2nc3ccccc3nc2O)=N\O)cc1	> 100 µM (inactive)	> 100	> 100 µM (inactive)		> 100 µM (inactive)	> 100 µM (inactive)	> 100 µM (inactive)	> 100 µM (inactive)	> 100 µM (inactive)	> 100 µM (inactive)	> 100 µM (inactive)	> 100 µM (inactive)	> 100 µM (inactive)	> 100 µM (inactive)		
CC(C)C(Nc1c2ccccc2[n+]([O-])c2ccccc12)C(=O)O (stereo unspecified)	36 µM (inactive)	45.9	84.9 µM (inactive)		43.1 µM (inactive)	> 100 µM (inactive)	91.2 µM (inactive)		> 100 µM (inactive)	53.2 µM (inactive)	35.2 µM (inactive)	> 100 µM (inactive)	> 100 µM (inactive)	10 µM (inactive)	> 100 µM (inactive)	35.6 µM (inactive)
CCOC(=O)C(=Cc1ccc(C(=O)OC)cc1)C(=O)OCC	1.76 µM (inactive)	2.37	1.75 µM (inactive)		1.71 µM (inactive)	3.01 µM (inactive)	1.69 µM (inactive)	1.67 µM (inactive)	2.92 µM (inactive)	2.98 µM (inactive)	1.69 µM (inactive)	3.37 µM (inactive)	1.66 µM (inactive)	2.61 µM (inactive)	5.26 µM (inactive)	2.08 µM (inactive)
N/N=C(\CC1OC(=O)c2ccccc21)c1ccco1 (stereo unspecified)	> 100 µM (inactive)	> 100	> 100 µM (inactive)		> 100 µM (inactive)	> 100 µM (inactive)	> 100 µM (inactive)	> 100 µM (inactive)	> 100 µM (inactive)		> 100 µM (inactive)	> 100 µM (inactive)		> 100 µM (inactive)	> 100 µM (inactive)	> 100 µM (inactive)
C/C(=N\NS(=O)(=O)c1ccc(C)cc1)C(CN1CCOCC1)C(c1ccccc1)c1c(O)c2ccccc2oc1=O (stereo unspecified)	> 100 µM (inactive)	> 100	> 100 µM (inactive)	19.7 µM (inactive)		> 100 µM (inactive)	> 100 µM (inactive)	> 100 µM (inactive)	> 100 µM (inactive)	> 100 µM (inactive)	> 100 µM (inactive)	> 100 µM (inactive)	> 100 µM (inactive)		83 µM (inactive)	> 100 µM (inactive)
